Key:
Format in all cases: functional
OVCAR-4 = test: Cytotoxicity against human OVCAR4 cells assessed as cellular growth at 0.01 uM after 48 hrs by SRB assay relative to control
MDA-MB-435 [1] = test: Cytotoxicity against human MDA-MB-435 cells assessed as cellular growth at 0.01 uM after 48 hrs by SRB assay relative to control
NCI-H460 [2] = test: Cytotoxicity against human NCI-H460 cells assessed as cellular growth at 0.01 uM after 48 hrs by SRB assay relative to control
NCI-H522 = test: Cytotoxicity against human NCI-H522 cells assessed as cellular growth at 0.01 uM after 48 hrs by SRB assay relative to control
UO-31 = test: Cytotoxicity against human UO31 cells assessed as cellular growth at 100 uM after 48 hrs by SRB assay relative to control
ACHN [3] = test: Cytotoxicity against human ACHN cells assessed as cellular growth at 100 uM after 48 hrs by SRB assay relative to control
SK-OV-3 [4] = test: Cytotoxicity against human SKOV3 cells assessed as cellular growth at 100 uM after 48 hrs by SRB assay relative to control
OVCAR-3 = test: Cytotoxicity against human OVCAR3 cells assessed as cellular growth at 100 uM after 48 hrs by SRB assay relative to control
MDA-MB-435 [5] = test: Cytotoxicity against human MDA-MB-435 cells assessed as cellular growth at 100 uM after 48 hrs by SRB assay relative to control
SK-MEL-28 = test: Cytotoxicity against human SK-MEL-28 cells assessed as cellular growth at 100 uM after 48 hrs by SRB assay relative to control
M14 [6] = test: Cytotoxicity against human M14 cells assessed as cellular growth at 100 uM after 48 hrs by SRB assay relative to control
LOX IMVI = test: Cytotoxicity against human LOXIMVI cells assessed as cellular growth at 100 uM after 48 hrs by SRB assay relative to control
SNB-75 = test: Cytotoxicity against human SNB75 cells assessed as cellular growth at 100 uM after 48 hrs by SRB assay relative to control
NCI-H460 [7] = test: Cytotoxicity against human NCI-H460 cells assessed as cellular growth at 100 uM after 48 hrs by SRB assay relative to control
NCI-H322M = test: Cytotoxicity against human NCI-H322M cells assessed as cellular growth at 100 uM after 48 hrs by SRB assay relative to control
[8] = Cytotoxicity against human EKVX cells assessed as cellular growth at 100 uM after 48 hrs by SRB assay relative to control
M14 [9] = test: Cytotoxicity against human M14 cells assessed as cellular growth at 10 uM after 48 hrs by SRB assay relative to control
HCT-116 [10] = test: Cytotoxicity against human HCT116 cells assessed as cellular growth at 10 uM after 48 hrs by SRB assay relative to control
IGROV-1 [11] = test: Cytotoxicity against human IGROV1 cells at 10 uM after 48 hrs by SRB assay
BT-549 = test: Cytotoxicity against human BT549 cells assessed as cellular growth at 100 uM after 48 hrs by SRB assay relative to control
Hs-578T = test: Cytotoxicity against human Hs578T cells assessed as cellular growth at 100 uM after 48 hrs by SRB assay relative to control
MCF7 [12] = test: Cytotoxicity against human MCF7 cells assessed as cellular growth at 1 uM after 48 hrs by SRB assay relative to control
SN12C = test: Cytotoxicity against human SN12C cells assessed as cellular growth at 1 uM after 48 hrs by SRB assay relative to control
SK-OV-3 [13] = test: Cytotoxicity against human SKOV3 cells assessed as cellular growth at 1 uM after 48 hrs by SRB assay relative to control
IGROV-1 [14] = test: Cytotoxicity against human IGROV1 cells assessed as cellular growth at 1 uM after 48 hrs by SRB assay relative to control
Malme-3M = test: Cytotoxicity against human MALME-3M cells assessed as cellular growth at 1 uM after 48 hrs by SRB assay relative to control
COLO 205 = test: Cytotoxicity against human COLO205 cells assessed as cellular growth at 1 uM after 48 hrs by SRB assay relative to control
A549 [15] = test: Cytotoxicity against human A549 cells assessed as cellular growth at 1 uM after 48 hrs by SRB assay relative to control
K562 = test: Cytotoxicity against human K562 cells assessed as cellular growth at 1 uM after 48 hrs by SRB assay relative to control
MDA-MB-468 = test: Cytotoxicity against human MDA-MB-468 cells assessed as cellular growth at 0.1 uM after 48 hrs by SRB assay relative to control
MCF7 [16] = test: Cytotoxicity against human MCF7 cells after 48 hrs by SRB assay; details: MCF7, 48 h
[17] = Cytotoxicity against human NCI-ADR-RES cells after 48 hrs by SRB assay
SK-MEL-5 = test: Cytotoxicity against human SK-MEL-5 cells after 48 hrs by SRB assay; details: SK-MEL-5, 48 h
HCT-116 [18] = test: Cytotoxicity against human HCT116 cells after 48 hrs by SRB assay; details: HCT-116, 48 h
A549 [19] = test: Cytotoxicity against human A549 cells after 48 hrs by SRB assay; details: A549, 48 h
ACHN [20] = test: Cytotoxicity against human ACHN cells assessed as cellular growth at 0.1 uM after 48 hrs by SRB assay relative to control
SK-OV-3 [21] = test: Cytotoxicity against human SKOV3 cells assessed as cellular growth at 0.1 uM after 48 hrs by SRB assay relative to control
NCI-H460 [22] = test: Cytotoxicity against human NCI-H460 cells assessed as cellular growth at 0.1 uM after 48 hrs by SRB assay relative to control
NCI-H226 = test: Cytotoxicity against human NCI-H226 cells assessed as cellular growth at 0.1 uM after 48 hrs by SRB assay relative to control
[23] = read-out: LC50 (the source's name)
[24] = read-out: pLC50 (the source's name) (converted)

Compound: O=C(CCCn1c2c(sc3ccccc32)c(=O)n2nnc(-c3ccccc3)c12)NCCc1c[nH]cn1
- Activity (OVCAR-4): 110%
- Activity (MDA-MB-435 [1]): 117%
- Activity (NCI-H460 [2]): 111%
- Activity (NCI-H522): 65%
- Activity (UO-31): -61%
- Activity (ACHN [3]): -100%
- Activity (SK-OV-3 [4]): -100%
- Activity (OVCAR-3): -100%
- Activity (MDA-MB-435 [5]): -76%
- Activity (SK-MEL-28): -100%
- Activity (M14 [6]): -38%
- Activity (LOX IMVI): -100%
- Activity (SNB-75): -96%
- Activity (NCI-H460 [7]): -15%
- Activity (NCI-H322M): -84%
- Activity [8]: -24%
- Activity (M14 [9]): -80.56%
- Activity (HCT-116 [10]): -100%
- Activity (IGROV-1 [11]): -89%
- Activity (BT-549): -72%
- Activity (Hs-578T): -49%
- Activity (MCF7 [12]): 58%
- Activity (SN12C): 36%
- Activity (SK-OV-3 [13]): 84%
- Activity (IGROV-1 [14]): 41%
- Activity (Malme-3M): 81%
- Activity (COLO 205): 41%
- Activity (A549 [15]): 64%
- Activity (K562): 1%
- Activity (MDA-MB-468): 97%
- GI50 (MCF7 [16]; read-out: GI50): 1.15 µM
- LC50 (MCF7 [16]; read-out: LC50): 6.11 µM
- TGI (MCF7 [16]; read-out: TGI): 2.65 µM
- GI50 (MCF7 [16]; read-out: pGI50 (converted)): 1.15 µM
- LC50 (MCF7 [16]; read-out: pLC50 (converted)): 6.17 µM
- TGI (MCF7 [16]; read-out: pTGI (converted)): 2.63 µM
- GI50 ([17]; read-out: GI50): 1.07 µM
- CC50 [17, 23]: > 100 µM
- TGI ([17]; read-out: TGI): > 100 µM
- GI50 ([17]; read-out: pGI50 (converted)): 1.07 µM
- GI50 (SK-MEL-5; read-out: GI50): 2.02 µM
- CC50 (SK-MEL-5; [23]): 33.2 µM
- TGI (SK-MEL-5; read-out: TGI): 11 µM
- GI50 (SK-MEL-5; read-out: pGI50 (converted)): 2.04 µM
- CC50 (SK-MEL-5; [24]): 33.1 µM
- TGI (SK-MEL-5; read-out: pTGI (converted)): 11 µM
- GI50 (HCT-116 [18]; read-out: GI50): < 0.01 µM
- GI50 (HCT-116 [18]; read-out: pGI50 (converted)): 0.01 µM
- GI50 (A549 [19]; read-out: GI50): 1.29 µM
- TGI (A549 [19]; read-out: TGI): 3.21 µM
- GI50 (A549 [19]; read-out: pGI50 (converted)): 1.29 µM
- TGI (A549 [19]; read-out: pTGI (converted)): 3.24 µM
- Activity (ACHN [20]): 100%
- Activity (SK-OV-3 [21]): 99%
- Activity (NCI-H460 [22]): 114%
- Activity (NCI-H226): 95%

Compound: CN1CCN(CCCn2c3c(sc4ncccc43)c(=O)n3nnc(-c4ccccc4)c23)CC1
- Activity (OVCAR-4): 100%
- Activity (MDA-MB-435 [1]): 101%
- Activity (NCI-H460 [2]): 102%
- Activity (NCI-H522): 96%
- Activity (UO-31): -87%
- Activity (ACHN [3]): -80%
- Activity (SK-OV-3 [4]): -95%
- Activity (OVCAR-3): -84%
- Activity (MDA-MB-435 [5]): -83%
- Activity (SK-MEL-28): -97%
- Activity (M14 [6]): -67%
- Activity (LOX IMVI): -46%
- Activity (SNB-75): -94%
- Activity (NCI-H460 [7]): -72%
- Activity (NCI-H322M): -92%
- Activity [8]: -80%
- Activity (M14 [9]): -75%
- Activity (HCT-116 [10]): -92.56%
- Activity (IGROV-1 [11]): -51%
- Activity (BT-549): -81%
- Activity (Hs-578T): -43%
- Activity (MCF7 [12]): 82%
- Activity (SN12C): 87%
- Activity (SK-OV-3 [13]): 106%
- Activity (IGROV-1 [14]): 94%
- Activity (Malme-3M): 105%
- Activity (COLO 205): 86%
- Activity (A549 [15]): 95%
- Activity (K562): 86%
- Activity (MDA-MB-468): 95%
- GI50 (MCF7 [16]; read-out: GI50): 1.53 µM
- LC50 (MCF7 [16]; read-out: LC50): 5.82 µM
- TGI (MCF7 [16]; read-out: TGI): 2.99 µM
- GI50 (MCF7 [16]; read-out: pGI50 (converted)): 1.55 µM
- LC50 (MCF7 [16]; read-out: pLC50 (converted)): 5.75 µM
- TGI (MCF7 [16]; read-out: pTGI (converted)): 3.02 µM
- GI50 ([17]; read-out: GI50): 2.23 µM
- CC50 [17, 23]: 43.2 µM
- TGI ([17]; read-out: TGI): 5.8 µM
- GI50 ([17]; read-out: pGI50 (converted)): 2.24 µM
- CC50 [17, 24]: 43.7 µM
- TGI ([17]; read-out: pTGI (converted)): 5.75 µM
- GI50 (SK-MEL-5; read-out: GI50): 1.7 µM
- CC50 (SK-MEL-5; [23]): 5.81 µM
- TGI (SK-MEL-5; read-out: TGI): 3.14 µM
- GI50 (SK-MEL-5; read-out: pGI50 (converted)): 1.7 µM
- CC50 (SK-MEL-5; [24]): 5.75 µM
- TGI (SK-MEL-5; read-out: pTGI (converted)): 3.16 µM
- GI50 (HCT-116 [18]; read-out: GI50): 1.71 µM
- CC50 (HCT-116 [18]; [23]): 6.96 µM
- TGI (HCT-116 [18]; read-out: TGI): 3.45 µM
- GI50 (HCT-116 [18]; read-out: pGI50 (converted)): 1.7 µM
- CC50 (HCT-116 [18]; [24]): 6.92 µM
- TGI (HCT-116 [18]; read-out: pTGI (converted)): 3.47 µM
- GI50 (A549 [19]; read-out: GI50): 1.79 µM
- TGI (A549 [19]; read-out: TGI): 3.4 µM
- GI50 (A549 [19]; read-out: pGI50 (converted)): 1.78 µM
- TGI (A549 [19]; read-out: pTGI (converted)): 3.39 µM
- Activity (ACHN [20]): 91%
- Activity (SK-OV-3 [21]): 94%
- Activity (NCI-H460 [22]): 100%
- Activity (NCI-H226): 80%

From ChEMBL document CHEMBL2401728, “An unexpected Dimroth rearrangement leading to annelated thieno[3,2-d][1,2,3]triazolo[1,5-a]pyrimidines with potent antitumor activity” (Eur J Med Chem, 2013)
